Values of other authors as cited in patent US7820159B2, “MN/CA IX and EGFR pathway inhibition” (Instiute of Virology of the Slovak Academy of Sciences, priority 2006, dated 2010).

Legend:
[1] = tested on: MEK; details: non-ATP competitive allosteric inhibitors, unlike the majority of ATP-competitive analogs
[2] = tested on: tumor xenograft models; details: in vivo
[3] = not given; remark: listed apart in the source
[4] = patients
[5] = molecular target: T1, MN (Homo sapiens, UniProt Q16790); details: patients
T1 construct: Phase I and II clinical trials of an MN-specific drug, Rencarex®; host or cells: endogenous MN/CA IX in human trial patients

Row | Compound | Selectivity for MEK in biochemical assays [1] | Anti-tumor activity in tumor xenograft models [2] | Solubility compared with CI-1040 | Metabolic stability compared with CI-1040 [3] | Drug-related side effects in Phase I and II clinical trials [4] | Tolerability in Phase I and II clinical trials [5]
1 | Cn1cnc2c(F)c(Nc3ccc(Br)cc3Cl)c(C(=O)NOCCO)cc21 [ARRY-142886] | high selectivity for MEK | potent anti-tumor activity |  |  |  | 
2 | O=C(NOC[C@H](O)CO)c1ccc(F)c(F)c1Nc1ccc(I)cc1F [PD-0325901] |  | potent anti-tumor activity | more soluble | improved |  | 
3 | Rencarex®: an MN-specific drug tested in Phase I and II clinical trials |  |  |  |  | no serious drug-related side effects | well-tolerated
